The values that follow come from US20050080045A1, “Composition comprising dextrinsulfate for the treatment of sexual transmitted diseases (std)” (priority 2001, published 2005).

For test [1], the system named is HSV-2. Nature of the test: HSV plaque reduction assay in Vero cells (HSV-2). The test is classed as cell-based, Herpes Simplex Virus. The settings on record: mean of two determinations. How it is done:
(§1) Dextrin sulphate was added to the cell culture and then removed following an incubation period. Virus was then added as it is thought that dextrin sulphate attaches to cell receptors, thereby blocking subsequent viral entry. Following incubation with virus, dextrin sulphate in carboxylmethyl cellulose was added. This medium was used to form a gel layer to prevent any intracellular virus (that has bypassed the dextrin sulphate-cell receptor blocking interaction) from further infecting other cells.
(§2) • (i) Seed 24 well cell culture plates with Vero cells (2×10^5 cells/ml/well). Prepare one plate per virus plus 2 plates for controls. • (ii) Grow cells to confluency overnight at 37° in 5% CO2. • (iii) Dilute virus as calculated to give about 100 plaques per well, a minimum volume of 5 ml per plate.
Plate Layout. Dextrin sulphate (D.S.) concentrations are in mg per ml. […]

In test [2] the test system is Chlamydia trachomatis Sa2f strain. Nature of the test: Chlamydia trachomatis cell culture assay (inclusion bodies in McCoy cell monolayers). The format is cell-based. How it is done:
McCoy cell monolayers were prepared on coverslips in plastic Bijoux. Cells were infected with Chlamydia trachomatis either alone or in the presence of dextrin sulphate. The Sa2f strain of C. trachomatis was used. Sa2f, which causes lymphogranuloma venereum, is similar to C. trachomatis. It is a heavily passaged laboratory strain which can infect McCoy cells without the need for spinning (for most strains of C. trachomatis, it is necessary to spin the cells onto the monolayers in the presence of cyclohexamide in order for infection of the monolayers to occur).
After incubation, coverslips were fixed and stained for C. trachomatis. The number of inclusion bodies per coverslip was estimated by fluorescence microscopy.

The test system of test [3] is HSV-1. Briefly: HSV plaque reduction assay in Vero cells (HSV-1). The format is cell-based, Herpes Simplex Virus. The settings on record: mean of two determinations. How it is done:
as §1, §2
Plate Layout. Dextrin sulphate (D.S.) concentrations are in mg per ml.
• (iv) Pipette cell medium off all wells except the cell control wells. • (v) Inoculate the appropriate well with 1 ml Dextrin sulphate made up in Minimum Essential Medium as per above layout. • (vi) Incubate the plate at 37° C. in CO2 incubator for 1 hour. • (vii) Remove Dextrin sulphate. • (viii) Inoculate 200 μl of virus dilution per well. • (ix) Incubate the plate at 37° C. in CO2 incubator for 1 hour. • (x) Add 1 ml Dextrin sulphate in CMC to appropriate wells, incubate the plates at 37° C. in CO2 incubator for 60 hours. • (xi) Fix with 10% formalin in PBS by topping up the wells, leave for a minimum of 1 hour. • (xii) Decant formalin, rinse plate in water, stain with crystal violet for 5-10 mins, rinse and drain. Leave plates to dry before counting.
(xiii) Count plaques, calculate IC50 by Grafit.
(In a plaque reduction assay, fewer plaques than in the control indicate reduced infectivity or spread.)

dextrin sulphate: the IC50 was found to be 4 µg/mL in test [1] (HSV-2 ACV resistant); 110 µg/mL in test [1] (HSV-2 ACV sensitive); 910 µg/mL in test [3] (DM-21, Laboratory HSB-1 ACV resistant); 2770 µg/mL in test [3] (HSV-1 ACV resistant); 1130 µg/mL in test [3] (HSV-1 ACV sensitive); 330 µg/mL in test [3] (SC-16, Laboratory HSV-1 ACV sensitive). Also, the “Inhibition (Expt. 2.1.1)” value in test [2] (Sa2f preincubated with dextrin sulphate before infecting the cell line) is “inhibition by dextrin”. In test [2] (dextrin sulphate preincubated with the cell line before infection with Sa2f), the “Inhibition (Expt. 2.1.2)” value was “inhibition by dextrin”. Further, in test [2] (larger infecting doses of Sa2f (400 inclusion bodies in 30 fields)), the “course of inhibitory activity (Expt. 2.3.1)” value was “plateaued off”. For the same substance, the “course of inhibitory activity (Expt. 2.3.2)” value in test [2] (lower infecting doses (40 inclusion bodies in 30 fields)) is “plateaued off”. In addition, in test [2] (lower infecting doses (40 inclusion bodies in 30 fields), dextrin sulphate 1000 μg/ml), the “inhibition (Expt. 2.3.2)” value is reported as “b) 80-90% inhibition”. Further, in test [2] (use of different infecting doses of Sa2f), the “Inhibition (Expt. 2.3)” value is listed as “inhibition by dextrin”.

In general, IC50 refers to the concentration needed to halve the response being measured.
